Assay results from patent US20240158348A1, “HERBICIDAL CYCLIC AMIDES N-SUBSTITUTED WITH A HALOALKYLSULFONYLANILIDE GROUP” (FMC Corporation, priority 2021, published 2024).

Columns and labels:
Type in all cases: in vivo
rice (Oryza sativa) = test: Test D flooded paddy test, rice; set-up: key: 0 = no effect, 100 = complete control; details: 250 g ai/ha, Flood; applied to paddy water at 2-leaf stage; visual rating after 13 days; scale 0 (no effect) to 100 (complete control)
Method in brief: (§1)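 Under 3 cm of standing water, kept constant after treatment, 2-leaf plants received compound via the paddy water. Ratings on a 0–100 control scale were assigned visually after 13 greenhouse days; a dash denotes no test result.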

[1] = system: ducksalad (Heteranthera limosa); test: Test D flooded paddy test, ducksalad; set-up: key: 0 = no effect, 100 = complete control; details: 250 g ai/ha, Flood; applied to paddy water at 2-leaf stage; visual rating after 13 days; scale 0 (no effect) to 100 (complete control)
Method in brief: as §1

[2] = system: pigweed, palmer (palmer amaranth, Amaranthus palmeri); test: Test C preemergence, palmer amaranth; details: 0 is no effect, 100 is complete control
Method in brief: (§2)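 Steps: sow in loam soil blended with sand; treat soil preemergence by directed spray, or treat young plants (2–10 cm, one to two leaves) postemergence; hold in greenhouse 10 or 12 days; rate injury visually relative to untreated controls on a 0–100 scale.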

soybean (Glycine max) = test: Test C postemergence, soybean; details: visual injury, 0 to 100 scale (0 no effect, 100 complete control)
[3] = system: barnyardgrass (Echinochloa crusgalli); test: Test D flooded paddy test, barnyardgrass; set-up: key: 0 = no effect, 100 = complete control; details: 250 g ai/ha, Flood; applied to paddy water at 2-leaf stage; visual rating after 13 days; scale 0 (no effect) to 100 (complete control)
Method in brief: as §1

[4] = system: galium (catchweed bedstraw, Galium aparine); test: Test C postemergence, galium; details: visual injury, 0 to 100 scale (0 no effect, 100 complete control)
[5] = system: wheat (Triticum aestivum); test: Test C postemergence, wheat; details: visual injury, 0 to 100 scale (0 no effect, 100 complete control)
Method in brief: as §2

[6] = system: ragweed (common ragweed, Ambrosia artemisiifolia); test: Test C preemergence, ragweed; details: 0 is no effect, 100 is complete control
Method in brief: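 Ratings run from 0, meaning no effect, up to 100, meaning complete control, judged by eye against untreated plants. Treatment was a directed soil spray before emergence or a postemergence spray on 2–10 cm seedlings, with evaluation 10 or 12 days later.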

[7] = system: blackgrass (Alopecurus myosuroides); test: Test C postemergence, blackgrass; details: visual injury, 0 to 100 scale (0 no effect, 100 complete control)
Method in brief: as §2

[8] = system: foxtail, giant (giant foxtail, Setaria faberi); test: Test C preemergence, giant foxtail; details: 0 is no effect, 100 is complete control
Method in brief: as §2

SMILES | Plant response rating, Rice (rice (Oryza sativa)) | Plant response rating, Ducksalad [1] | Plant response rating (0 to 100 scale), Pigweed, Palmer ([2]; 31 g ai/ha Preemergence) | Plant response rating (0 to 100 scale), Pigweed, Palmer ([2]; 125 g ai/ha Preemergence) | Soybean plant response rating (soybean (Glycine max); 31 g ai/ha Postemergence) | Soybean plant response rating (soybean (Glycine max); 125 g ai/ha Postemergence) | Plant response rating, Barnyardgrass [3] | Galium plant response rating ([4]; 31 g ai/ha Postemergence) | Galium plant response rating ([4]; 125 g ai/ha Postemergence) | Wheat plant response rating ([5]; 31 g ai/ha Postemergence) | Wheat plant response rating ([5]; 125 g ai/ha Postemergence) | Plant response rating (0 to 100 scale), Ragweed ([6]; 31 g ai/ha Preemergence) | Plant response rating (0 to 100 scale), Ragweed ([6]; 125 g ai/ha Preemergence) | Blackgrass plant response rating ([7]; 31 g ai/ha Postemergence) | Blackgrass plant response rating ([7]; 125 g ai/ha Postemergence) | Plant response rating (0 to 100 scale), Foxtail, Giant ([8]; 31 g ai/ha Preemergence) | Plant response rating (0 to 100 scale), Foxtail, Giant ([8]; 125 g ai/ha Preemergence)
Cc1c(NS(=O)(=O)C(F)(F)F)cc(N2CCC(OC3CCC3)C2=O)c(C)c1C (stereo not drawn) [Compound 45] | 55 | 85 | 100 | 100 | 80 | 100 | 95 | 100 | 100 | 20 | 60 | 80 | 100 | 10 | 40 | 100 | 100
Cc1c(NS(=O)(=O)C(F)(F)F)cc(N2CCC(OC3CC3)C2=O)c(C)c1C (stereo not drawn) [Compound 47] | 30 | 95 | 100 | 100 | 70 | 90 | 75 | 80 | 90 | 80 | 80 | 70 | 100 | 40 | 70 | 100 | 100
Cc1c(N2CCC(OC3CCC3)C2=O)cc(N(C(=O)OCC(C)C)S(=O)(=O)C(F)(F)F)c(C)c1C (stereo not drawn) [Compound 48] | 25 | 95 | 100 | 100 | 30 | 70 | 80 | 90 | 100 | 30 | 70 | 20 | 90 | 10 | 30 | 30 | 100
Cc1c(N2CCC(OC3CC3)C2=O)cc(N(COC(=O)C(C)(C)C)S(=O)(=O)C(F)(F)F)c(C)c1C (stereo not drawn) [Compound 49] | 40 | 95 | 30 | 100 | 60 | 80 | 100 | 80 | 90 | 70 | 70 | 100 | 100 | 30 | 60 | 20 | 90
Cc1c(N2CCC(OC3CCC3)C2=O)cc(N(COC(=O)C(C)(C)C)S(=O)(=O)C(F)(F)F)c(C)c1C (stereo not drawn) [Compound 51] | 10 | 85 | 20 | 60 | 30 | 60 | 100 | 60 | 90 | 20 | 70 | 0 | 70 | 10 | 20 | 10 | 90
Cc1cc(C)c(N2CCC(OCC3CCCC3)C2=O)cc1NS(=O)(=O)C(F)(F)F (stereo not drawn) [Compound 57] | 10 | 90 | 100 | 100 | 80 | 100 | 15 | 50 | 90 | 70 | 70 | 0 | 80 | 40 | 80 | 80 | 100
C=C(C)COC1CCN(c2cc(NS(=O)(=O)C(F)(F)F)c(C)cc2C)C1=O (stereo not drawn) [Compound 59] | 40 | 80 | 100 | 100 | 60 | 80 | 60 | 100 | 100 | 50 | 80 | 50 | 70 | 10 | 80 | 100 | 100
CC#CCOC1CCN(c2cc(NS(=O)(=O)C(F)(F)F)c(C)cc2C)C1=O (stereo not drawn) [Compound 60] | 35 | 90 | 100 | 100 | 80 | 100 | 90 | 100 | 100 | 80 | 90 | 90 | 100 | 50 | 90 | 100 | 100
Cc1cc(C)c(N2CCC(OCc3ccccc3)C2=O)cc1NS(=O)(=O)C(F)(F)F (stereo not drawn) [Compound 61] | 20 | 75 | 100 | 100 | 60 | 90 | 95 | 70 | 90 | 70 | 80 | 0 | 90 | 30 | 70 | 100 | 100
